According to patent US12304917B1, “Pleuromutilin derivative containing a thiazolo[5,4-c]pyridine side chain, and a preparation method and application thereof” (SHAANXI UNIVERSITY OF SCIENCE AND TECHNOLOGY, priority 2024, dated 2025):
Converted amounts (≈) assume the structure as drawn.

Assays:
[1] = tested on: Methicillin-resistant S. aureus ATCC 33591; assay: MIC by broth microdilution; settings: Staphylococcus aureus, ATCC33591|MRSA, 24 h, read-out: Minimum inhibitory concentration MRSA^b
E. coli CMCC 44103 = assay: MIC by broth microdilution; settings: Escherichia coli, CMCC44103, 24 h, read-out: Minimum inhibitory concentration E.c.^i
S. enterica ATCC14028 = assay: MIC by broth microdilution; settings: Salmonella enterica, ATCC14028, 24 h, read-out: Minimum inhibitory concentration S.e.^g
S. aureus ATCC 29213 = assay: MIC by broth microdilution; settings: Staphylococcus aureus, ATCC29213, 24 h, read-out: Minimum inhibitory concentration S.a.^d
physchem = settings: thermodynamic from solid
E. coli ATCC 25922 = assay: MIC by broth microdilution; settings: Escherichia coli, ATCC25922, 24 h, read-out: Minimum inhibitory concentration E.c.^h
A. baumannii ATCC 19606 = assay: MIC by broth microdilution; settings: Acinetobacter baumannii, ATCC19606, 24 h, read-out: Minimum inhibitory concentration A.b.^f
[2] = tested on: Methicillin-resistant S. epidermidis ATCC 51625; assay: MIC by broth microdilution; settings: Staphylococcus epidermidis, ATCC51625|MRSE, 24 h, read-out: Minimum inhibitory concentration MRSE^e
[3] = tested on: Methicillin-resistant S. aureus ATCC 43300; assay: MIC by broth microdilution; settings: Staphylococcus aureus, ATCC43300|MRSA, 24 h, read-out: Minimum inhibitory concentration MRSA^c

## C=C[C@]1(C)C[C@@H](OC(=O)CSc2nc3cc[n+](Cc4ccc(Br)cc4)cc3s2)[C@]2(C)[C@H](C)CC[C@]3(CCC(=O)[C@H]32)[C@@H](C)[C@@H]1O [Compound I-1, 5-(4-bromobenzyl)-2-((2-(((3aR,4R,5R,7S,8S,9R,9aS,12R)-8-hydroxy-4,7,9,12-tetramethyl-3-oxo-7-vinyldecahydro-4,9a-propancyclopenta[8]cyclo-5-yl)oxy)-2-oxoethyl)thio)thiazolo[5,4-c]pyridin-5-ium]
[1]
  MIC: 32 mg/L
E. coli CMCC 44103
  MIC: 32 mg/L
S. enterica ATCC14028
  MIC: 32 mg/L
S. aureus ATCC 29213
  MIC: 16 mg/L
physchem
  solubility: 450 µM
E. coli ATCC 25922
  MIC: 32 mg/L
A. baumannii ATCC 19606
  MIC: 16 mg/L
[2]
  MIC: 8 mg/L
[3]
  MIC: 16 mg/L

## C=C[C@]1(C)C[C@@H](OC(=O)CSc2nc3cc[n+](Cc4ccc(C(F)(F)F)cc4)cc3s2)[C@]2(C)[C@H](C)CC[C@]3(CCC(=O)[C@H]32)[C@@H](C)[C@@H]1O [Compound I-2, 5-(4-trifluoromethyl)-2-((2-(((3aR,4R,5R,7S,8S,9R,9aS,12R)-8-hydroxy-4,7,9,12-tetramethyl-3-oxo-7-vinyldecahydro-4,9a-propancyclopenta[8]cyclo-5-yl)oxy)-2-oxoethyl)thio)thiazolo[5,4-c]pyridin-5-ium]
[1]
  MIC: 32 mg/L
E. coli CMCC 44103
  MIC: 16 mg/L
S. enterica ATCC14028
  MIC: 8 mg/L
S. aureus ATCC 29213
  MIC: 8 mg/L
physchem
  solubility: 327 µM
E. coli ATCC 25922
  MIC: 8 mg/L
A. baumannii ATCC 19606
  MIC: 32 mg/L
[2]
  MIC: 16 mg/L
[3]
  MIC: 16 mg/L

## C=C[C@]1(C)C[C@@H](OC(=O)CSc2nc3cc[n+](Cc4ccc(F)cc4)cc3s2)[C@]2(C)[C@H](C)CC[C@]3(CCC(=O)[C@H]32)[C@@H](C)[C@@H]1O [Compound I-3, 5-(4-fluorobenzyl)-2-((2-(((3aR,4R,5R,7S,8S,9R,9aS,12R)-8-hydroxy-4,7,9,12-tetramethyl-3-oxo-7-vinyldecahydro-4,9a-propancyclopenta[8]cyclo-5-yl)oxy)-2-oxoethyl)thio)thiazolo[5,4-c]pyridin-5-ium]
[1]
  MIC: 32 mg/L
E. coli CMCC 44103
  MIC: 16 mg/L
S. enterica ATCC14028
  MIC: 32 mg/L
S. aureus ATCC 29213
  MIC: 16 mg/L
physchem
  solubility: 561 µM
E. coli ATCC 25922
  MIC: 8 mg/L
A. baumannii ATCC 19606
  MIC: 32 mg/L
[2]
  MIC: 8 mg/L
[3]
  MIC: 16 mg/L

## C=C[C@]1(C)C[C@@H](OC(=O)CSc2nc3cc[n+](Cc4ccc(OC)cc4)cc3s2)[C@]2(C)[C@H](C)CC[C@]3(CCC(=O)[C@H]32)[C@@H](C)[C@@H]1O [Compound I-4, 5-(4-methoxybenzyl)-2-((2-(((3aR,4R,5R,7S,8S,9R,9aS,12R)-8-hydroxy-4,7,9,12-tetramethyl-3-oxo-7-vinyldecahydro-4,9a-propancyclopenta[8]cyclo-5-yl)oxy)-2-oxoethyl)thio)thiazolo[5,4-c]pyridin-5-ium]
[1]
  MIC: 32 mg/L
E. coli CMCC 44103
  MIC: 8 mg/L
S. enterica ATCC14028
  MIC: 32 mg/L
S. aureus ATCC 29213
  MIC: 16 mg/L
physchem
  solubility: 247 µM
E. coli ATCC 25922
  MIC: 16 mg/L
A. baumannii ATCC 19606
  MIC: 32 mg/L
[2]
  MIC: 64 mg/L
[3]
  MIC: 8 mg/L

## C=C[C@]1(C)C[C@@H](OC(=O)CSc2nc3cc[n+](Cc4ccc(Cl)cc4)cc3s2)[C@]2(C)[C@H](C)CC[C@]3(CCC(=O)[C@H]32)[C@@H](C)[C@@H]1O [Compound I-5, 5-(4-chlorobenzyl)-2-((2-(((3aR,4R,5R,7S,8S,9R,9aS,12R)-8-hydroxy-4,7,9,12-tetramethyl-3-oxo-7-vinyldecahydro-4,9a-propancyclopenta[8]cyclo-5-yl)oxy)-2-oxoethyl)thio)thiazolo[5,4-c]pyridin-5-ium]
[1]
  MIC: 32 mg/L
E. coli CMCC 44103
  MIC: 32 mg/L
S. enterica ATCC14028
  MIC: 16 mg/L
S. aureus ATCC 29213
  MIC: 8 mg/L
physchem
  solubility: 623 µM
E. coli ATCC 25922
  MIC: 32 mg/L
A. baumannii ATCC 19606
  MIC: 32 mg/L
[2]
  MIC: 32 mg/L
[3]
  MIC: 32 mg/L

## C=C[C@]1(C)C[C@@H](OC(=O)CSc2nc3cc[n+](Cc4cc(F)c(F)cc4F)cc3s2)[C@]2(C)[C@H](C)CC[C@]3(CCC(=O)[C@H]32)[C@@H](C)[C@@H]1O [Compound I-7, 5-(2,4,5-trifluorobenzyl)-2-((2-(((3aR,4R,5R,7S,8S,9R,9aS,12R)-8-hydroxy-4,7,9,12-tetramethyl-3-oxo-7-vinyldecahydro-4,9a-propancyclopenta[8]cyclo-5-yl)oxy)-2-oxoethyl)thio)thiazolo[5,4-c]pyridin-5-ium]
[1]
  MIC: 128 mg/L
E. coli CMCC 44103
  MIC: 64 mg/L
S. enterica ATCC14028
  MIC: 64 mg/L
S. aureus ATCC 29213
  MIC: 64 mg/L
physchem
  solubility: 656 µM
E. coli ATCC 25922
  MIC: 128 mg/L
A. baumannii ATCC 19606
  MIC: 128 mg/L
[2]
  MIC: 64 mg/L
[3]
  MIC: 64 mg/L

## C=C[C@]1(C)C[C@@H](OC(=O)CSc2nc3cc[n+](Cc4ccc(-c5ccccc5)cc4)cc3s2)[C@]2(C)[C@H](C)CC[C@]3(CCC(=O)[C@H]32)[C@@H](C)[C@@H]1O [Compound I-10, 5-([1,1′-biphenyl]-4-ylmethyl)-2-((2-(((3aR,4R,5R,7S,8S,9R,9aS,12R)-8-hydroxy-4,7,9,12-tetramethyl-3-oxo-7-vinyldecahydro-4,9a-propancyclopenta[8]cyclo-5-yl)oxy)-2-oxoethyl)thio)thiazolo[5,4-c]pyridin-5-ium]
[1]
  MIC: 16 mg/L
E. coli CMCC 44103
  MIC: 32 mg/L
S. enterica ATCC14028
  MIC: 16 mg/L
S. aureus ATCC 29213
  MIC: 8 mg/L
physchem
  solubility: 513 µM
E. coli ATCC 25922
  MIC: 16 mg/L
A. baumannii ATCC 19606
  MIC: 8 mg/L
[2]
  MIC: 32 mg/L
[3]
  MIC: 64 mg/L

## C=C[C@]1(C)C[C@@H](OC(=O)CSc2nc3cc[n+](Cc4ccc(C(C)(C)C)cc4)cc3s2)[C@]2(C)[C@H](C)CC[C@]3(CCC(=O)[C@H]32)[C@@H](C)[C@@H]1O [Compound I-11, 5-(4-(tert-butyl)benzyl)-2-((2-(((3aR,4R,5R,7S,8S,9R,9aS,12R)-8-hydroxy-4,7,9,12-tetramethyl-3-oxo-7-vinyldecahydro-4,9a-propancyclopenta[8]cyclo-5-yl)oxy)-2-oxoethyl)thio)thiazolo[5,4-c]pyridin-5-ium]
[1]
  MIC: 64 mg/L
E. coli CMCC 44103
  MIC: 16 mg/L
S. enterica ATCC14028
  MIC: 32 mg/L
S. aureus ATCC 29213
  MIC: 32 mg/L
E. coli ATCC 25922
  MIC: 32 mg/L
A. baumannii ATCC 19606
  MIC: 8 mg/L
[2]
  MIC: 32 mg/L
[3]
  MIC: 16 mg/L

## C=C[C@]1(C)C[C@@H](OC(=O)CSc2nc3cc[n+](Cc4cc(C)cc(C)c4)cc3s2)[C@]2(C)[C@H](C)CC[C@]3(CCC(=O)[C@H]32)[C@@H](C)[C@@H]1O [Compound I-12, 5-(3,5-dimethylbenzyl)-2-((2-(((3aR,4R,5R,7S,8S,9R,9aS,12R)-8-hydroxy-4,7,9,12-tetramethyl-3-oxo-7-vinyldecahydro-4,9a-propancyclopenta[8]cyclo-5-yl)oxy)-2-oxoethyl)thio)thiazolo[5,4-c]pyridin-5-ium]
[1]
  MIC: 64 mg/L
E. coli CMCC 44103
  MIC: 32 mg/L
S. enterica ATCC14028
  MIC: 64 mg/L
S. aureus ATCC 29213
  MIC: 16 mg/L
physchem
  solubility: 549 µM
E. coli ATCC 25922
  MIC: 64 mg/L
A. baumannii ATCC 19606
  MIC: 32 mg/L
[2]
  MIC: 32 mg/L
[3]
  MIC: 64 mg/L

## C=C[C@]1(C)C[C@@H](OC(=O)CSCCN(CC)CC)[C@]2(C)[C@H](C)CC[C@]3(CCC(=O)[C@H]32)[C@@H](C)[C@@H]1O [Tiamulin, tiamulin, reference compound]
physchem
  solubility: 259 µM (≈ 128 µg/mL)
